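Dose response: 5 concentrations. Exposure: 48 h. Format: 96-well plates. Endpoint: linear interpolation; highest concentration if not reached. GI50 = concentration required for 50% inhibition of growth.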 Active and inactive are the calls of the source. No stated cut-off is given here; in the data, active = GI50 up to about 1.1 µM and inactive = higher.
Columns and labels:
Experiment in all cases: NCI tumour cell line growth inhibition, 48 h
[1] = system: SR
[2] = system: HL-60
[3] = system: SNB-19
[4] = system: IGROV-1
[5] = system: ACHN
[6] = system: NCI-H460
[7] = system: NCI-H23
[8] = system: NCI/ADR-RES
[9] = system: M14
[10] = system: PC-3
[11] = system: OVCAR-5
[12] = system: UO-31
[13] = system: CCRF-CEM
[14] = system: MOLT-4
[15] = system: SF-268
[16] = system: HCT-116
[17] = system: SNB-75
[18] = system: SK-MEL-28
[19] = system: OVCAR-8
[20] = system: SF-539

SMILES | GI50 [1] | GI50 [2] | GI50 [3] | GI50 [4] | GI50 [5] | GI50 [6] | GI50 [7] | GI50 [8] | GI50 [9] | GI50 [10] | GI50 [11] | GI50 [12] | GI50 [13] | GI50 [14] | GI50 [15] | GI50 [16] | GI50 [17] | GI50 [18] | GI50 [19] | GI50 [20]
CC(=O)NC1C(OCc2ccccc2)OC(CO)C(O)C1OCC(=O)NC(C)C(=O)NC(CCC(=O)NCCCCCNc1c2ccccc2nc2cccc([N+](=O)[O-])c12)C(N)=O (stereo not given) | 0.00217 µM (active) | < 0.0001 µM (active) | < 0.0001 µM (active) | 0.00102 µM (active) | < 0.0001 µM (active) | < 0.0001 µM (active) | < 0.0001 µM (active) | 0.000327 µM (active) | < 0.0001 µM (active) | < 0.0001 µM (active) | < 0.0001 µM (active) | < 0.01 µM (active) | 0.000861 µM (active) | < 0.0001 µM (active) | < 0.0001 µM (active) | < 0.0001 µM (active) | < 0.0001 µM (active) | < 0.0001 µM (active) | < 0.0001 µM (active) | < 0.0001 µM (active)
c1ccc(-c2nnc(-c3ccccn3)c3c2C[C@@H]2C[C@@H]4Cc5c(-c6ccccn6)nnc(-c6ccccn6)c5[C@@H]4[C@H]32)nc1 | 41.4 µM (inactive) | 24.7 µM (inactive) | 80.7 µM (inactive) | 58.5 µM (inactive) | 24.9 µM (inactive) | 27.5 µM (inactive) | > 100 µM (inactive) | 32.7 µM (inactive) | 20 µM (inactive) | 41.5 µM (inactive) | 61 µM (inactive) | 21.7 µM (inactive) | 30.3 µM (inactive) | 33.2 µM (inactive) | 35 µM (inactive) | 39.8 µM (inactive) | 76.6 µM (inactive) | 34.8 µM (inactive) | 36.8 µM (inactive) | 85.7 µM (inactive)
NC1(c2cc3ccccc3s2)CCCC1 | 21.1 µM (inactive) | 18.3 µM (inactive) | > 100 µM (inactive) | > 100 µM (inactive) | 86.5 µM (inactive) | 33.6 µM (inactive) | > 100 µM (inactive) | 78.9 µM (inactive) | 25.5 µM (inactive) | 32 µM (inactive) | > 100 µM (inactive) | 69.2 µM (inactive) | 16.9 µM (inactive) | 18.4 µM (inactive) | > 100 µM (inactive) | 33.8 µM (inactive) | 67.9 µM (inactive) | 23.7 µM (inactive) | > 100 µM (inactive) | 18.5 µM (inactive)
O=C1C(Cl)C(c2cc3cc(Br)ccc3nc2Cl)N1c1c(Cl)cccc1Cl (stereo not given) | 4.78 µM (inactive) | 8.24 µM (inactive) | > 25 µM (inactive) | 6.9 µM (inactive) | 15.9 µM (inactive) | > 25 µM (inactive) | 20.4 µM (inactive) | 12.3 µM (inactive) | 22.1 µM (inactive) | 20 µM (inactive) | > 25 µM (inactive) | 1.3 µM (inactive) | 7.53 µM (inactive) | 4.9 µM (inactive) | 11.7 µM (inactive) | 9.12 µM (inactive) | > 25 µM (inactive) | > 25 µM (inactive) | 10.8 µM (inactive) | 5.27 µM (inactive)
Nc1nc(Cl)c2ncn(Cc3ccc(CCl)cc3)c2n1 | 3.02 µM (inactive) | 6.81 µM (inactive) | 6.78 µM (inactive) | 9.23 µM (inactive) | 9.62 µM (inactive) | 4.25 µM (inactive) | 12 µM (inactive) | 3.33 µM (inactive) | 14 µM (inactive) | 7.45 µM (inactive) | 3.29 µM (inactive) | 11.9 µM (inactive) | 2.68 µM (inactive) | 2.96 µM (inactive) | 1.88 µM (inactive) | 2.76 µM (inactive) | 23.1 µM (inactive) | 18 µM (inactive) | 5.13 µM (inactive) | 3.13 µM (inactive)
Cn1c(=O)sc2cc(C(=S)N3CCOCC3)ccc21 | 69.7 µM (inactive) | 24.7 µM (inactive) | > 100 µM (inactive) | > 51.5 µM (inactive) | > 100 µM (inactive) | > 100 µM (inactive) | > 100 µM (inactive) | > 73.1 µM (inactive) | > 100 µM (inactive) | > 100 µM (inactive) | > 100 µM (inactive) | 60 µM (inactive) | 28.6 µM (inactive) | 39.9 µM (inactive) | > 100 µM (inactive) | > 100 µM (inactive) | > 34 µM (inactive) | > 100 µM (inactive) | > 47.1 µM (inactive) | > 100 µM (inactive)
c1ccc2c(c1)CCCN1CCc3ccccc3C21 (stereo not given) | 58.7 µM (inactive) | 47.1 µM (inactive) | 92.3 µM (inactive) | 40.3 µM (inactive) | 68.9 µM (inactive) | 33.9 µM (inactive) | 48.4 µM (inactive) | 78.3 µM (inactive) | 26.9 µM (inactive) | 41 µM (inactive) | 42.2 µM (inactive) | 30.3 µM (inactive) | 49.1 µM (inactive) | 50.9 µM (inactive) | 92 µM (inactive) | 38.5 µM (inactive) | 98.2 µM (inactive) | 31.4 µM (inactive) | > 100 µM (inactive) | 24 µM (inactive)
O=c1n(-c2ccccc2)c(=O)n2n1C1C=CC2CCCCCC1 | > 100 µM (inactive) | 29.4 µM (inactive) | > 100 µM (inactive) | > 100 µM (inactive) | > 100 µM (inactive) | > 100 µM (inactive) | > 100 µM (inactive) | > 100 µM (inactive) | > 100 µM (inactive) | > 100 µM (inactive) | > 100 µM (inactive) | > 100 µM (inactive) | > 100 µM (inactive) | > 100 µM (inactive) | > 100 µM (inactive) | > 100 µM (inactive) | > 100 µM (inactive) | > 100 µM (inactive) | > 100 µM (inactive) | > 100 µM (inactive)
CC1=C(C(=O)NNC(=O)C(N)=O)CC(C(=O)NNC(=O)C(N)=O)=C(C)N1 | > 100 µM (inactive) | 47.4 µM (inactive) | > 100 µM (inactive) | > 100 µM (inactive) | > 100 µM (inactive) | > 100 µM (inactive) | > 100 µM (inactive) | > 100 µM (inactive) | > 100 µM (inactive) | > 100 µM (inactive) | > 100 µM (inactive) | > 100 µM (inactive) | > 100 µM (inactive) | > 100 µM (inactive) | > 100 µM (inactive) | > 100 µM (inactive) | > 100 µM (inactive) | > 100 µM (inactive) | > 100 µM (inactive) | > 100 µM (inactive)
Nc1cc(Cl)cc2cc(Cl)cnc12 | 38 µM (inactive) | 43.1 µM (inactive) | > 100 µM (inactive) | 93.1 µM (inactive) | > 100 µM (inactive) | > 100 µM (inactive) | > 100 µM (inactive) | > 100 µM (inactive) | > 100 µM (inactive) | 72.3 µM (inactive) | > 100 µM (inactive) | 34.8 µM (inactive) | 14 µM (inactive) | 44.5 µM (inactive) | 82.6 µM (inactive) | > 100 µM (inactive) | 40.3 µM (inactive) | > 100 µM (inactive) | > 100 µM (inactive) | > 100 µM (inactive)
N#CC1(C#N)C2=C(CCCC2)NC(c2ccc(Br)cc2)C1(C#N)C#N (stereo not given) | 0.782 µM (active) | 0.286 µM (active) | 16.5 µM (inactive) | 2.83 µM (inactive) | 1.77 µM (inactive) | 24.1 µM (inactive) | 12.3 µM (inactive) | 17.2 µM (inactive) | 2.63 µM (inactive) | 13.7 µM (inactive) | 9.95 µM (inactive) | 1.46 µM (inactive) | 0.226 µM (active) | 0.384 µM (active) | 7.78 µM (inactive) | 1.84 µM (inactive) | 15.7 µM (inactive) | 12.6 µM (inactive) | 2.7 µM (inactive) | 14.2 µM (inactive)
COc1ccc([C@H]2CC(=O)C[C@H](c3ccc(OC)cc3OC)C23C(=O)c2ccccc2C3=O)c(OC)c1 | > 100 µM (inactive) | > 100 µM (inactive) | > 100 µM (inactive) | > 100 µM (inactive) | > 100 µM (inactive) | > 100 µM (inactive) | > 100 µM (inactive) | > 100 µM (inactive) | > 100 µM (inactive) | > 100 µM (inactive) | > 100 µM (inactive) | > 100 µM (inactive) | > 100 µM (inactive) | > 100 µM (inactive) | > 100 µM (inactive) | > 100 µM (inactive) | 26.9 µM (inactive) | > 100 µM (inactive) | 99.5 µM (inactive) | > 100 µM (inactive)
CCCCCCCCCCCC(=O)OC[C@H](C[As](=O)(O)O)OC(=O)CCCCCCCCCCC | 9.68 µM (inactive) | 3.05 µM (inactive) | 5.93 µM (inactive) | 1.9 µM (inactive) | 2.79 µM (inactive) | 4.79 µM (inactive) | 5.98 µM (inactive) | 14.1 µM (inactive) | 2.62 µM (inactive) | 2.9 µM (inactive) | 18.2 µM (inactive) | 16 µM (inactive) | 13.7 µM (inactive) | 6.14 µM (inactive) | 8.13 µM (inactive) | 8.89 µM (inactive) | 7.4 µM (inactive) | 3.94 µM (inactive) | 13 µM (inactive) | 14.2 µM (inactive)
O=C1/C(=C/c2cccc([N+](=O)[O-])c2)CCCc2ccccc21 | 2.86 µM (inactive) | 4.94 µM (inactive) | 15.2 µM (inactive) | 11 µM (inactive) | 13.7 µM (inactive) | 18.5 µM (inactive) | 15.8 µM (inactive) | 9.51 µM (inactive) | 13.8 µM (inactive) | 11 µM (inactive) | 13.3 µM (inactive) | 16.4 µM (inactive) | 2.93 µM (inactive) | 4.95 µM (inactive) | 4.82 µM (inactive) | 5.4 µM (inactive) | 15.1 µM (inactive) | 15.3 µM (inactive) | 12.7 µM (inactive) | 15.3 µM (inactive)
